Assays:
Format in all cases: in vivo
[1] = test system: Nightshade; assay: Test C preemergence
[2] = test system: Sunflower; assay: Test C preemergence; details: Rate 125 g/ha; scale 0 to 100, 0 no effect, 100 complete control
[3] = test system: Surinam grass (Brachiaria decumbens); assay: Test C preemergence
Outline: (§1)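 Pre- and postemergence treatments used a non-phytotoxic solvent/surfactant formulation; post-treated plants measured 2 to 18 cm. Greenhouse hold 12–14 d; % control estimated visually relative to controls.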

[4] = test system: bermudagrass (Cynodon dactylon); assay: Test C preemergence
Outline: as §1

[5] = test system: cocklebur (Xanthium strumarium); assay: Test C preemergence
Outline: as §1

[6] = test system: common ragweed (Ambrosia elatior); assay: Test C preemergence
Outline: as §1

[7] = test system: corn (Zea mays); assay: Test C preemergence
Outline: as §1

[8] = test system: crabgrass (Digitaria sanguinalis); assay: Test C preemergence
Outline: as §1

[9] = test system: giant foxtail (Setaria faberii); assay: Test C preemergence
Outline: as §1

[10] = test system: goosegrass (Eleusine indica); assay: Test C preemergence
Outline: as §1

[11] = test system: johnsongrass (Sorghum halepense); assay: Test C preemergence
Outline: as §1

[12] = test system: kochia (Kochia scoparia); assay: Test C preemergence
Outline: as §1

[13] = test system: lambsquarters (Chenopodium album); assay: Test C preemergence
Outline: as §1

[14] = test system: morningglory (Ipomoea hederacea); assay: Test C preemergence
Outline: as §1

[15] = test system: pigweed (Amaranthus retroflexus); assay: Test C preemergence
Outline: as §1

[16] = test system: soybean (Glycine max); assay: Test C preemergence
Outline: as §1

[17] = test system: velvetleaf (Abutilon theophrasti); assay: Test C preemergence
Outline: as §1

[18] = test system: woolly cupgrass (Eriochloa villosa); assay: Test C preemergence
Outline: as §1

[19] = test system: yellow nutsedge (Cyperus esculentus); assay: Test C preemergence
Outline: as §1

[20] = test system: barnyardgrass (Echinochloa crus-galli); assay: Test C flooded paddy test; details: for Barnyardgrass plant response rating: Flooded Paddy, scale 0 to 100, 0 no effect, 100 complete control; for Plant response rating, Barnyardgrass: flooded paddy test, scale 0 to 100 (0 no effect, 100 complete control)
Outline: (§2)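 Rice and three paddy weeds were grown to the 2-leaf stage under flooded conditions, then treated and kept in a greenhouse for 12–14 days. Response was rated visually against untreated controls on a 0–100 scale, where 100 is complete control.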

[21] = test system: rice (Oryza saliva); assay: Test C flooded paddy test; details: for Rice plant response rating: Flooded Paddy, scale 0 to 100, 0 no effect, 100 complete control; for Plant response rating, Rice: flooded paddy test, scale 0 to 100 (0 no effect, 100 complete control)
Outline: as §2

[22] = test system: Sunflower; assay: Test C preemergence; details: Rate 500 g/ha, visual evaluation after 12 to 14 days
[23] = Rate 125 g/ha, scale 0 to 100, 0 no effect, 100 complete control
[24] = preemergence, Rate 62 g/ha, scale 0 to 100
[25] = preemergence, Rate 500 g/ha, visual evaluation after 12 to 14 days
[26] = preemergence, Rate 250 g/ha, scale 0 to 100, 0 no effect, 100 complete control

Q: How did the “Plant response rating, Nightshade” value ([1]; Rate 62 g/ha, scale 0 to 100) turn out when CCCC(C)c1ccn(C2OCN(c3cccc(C(F)(F)F)c3)C2=O)n1 (stereo not drawn) [Compound 89] was run?
A: 0

Q: What about the “Plant response rating, Nightshade” value [1, 23] of the same molecule?
A: 0

Q: And the “Plant response rating, Nightshade” value ([1]; Rate 250 g/ha, scale 0 to 100, 0 no effect, 100 complete control)?
A: 0

Q: And the “Plant response rating, Sunflower” value [2]?
A: 0

Q: What about the “Plant response rating, Surinam grass” value [3, 23] of the same molecule?
A: 10

Q: And the “Plant response rating, Surinam grass” value [3, 24]?
A: 0

Q: What about the “Plant response rating (0 to 100), Surinam grass” value [3, 25] of the same molecule?
A: 65

Q: And the “Plant response rating, Surinam grass” value [3, 26]?
A: 30

Q: What about the “Plant response rating, Bermudagrass” value [4, 23] of the same molecule?
A: 90

Q: What about the “Plant response rating, Bermudagrass” value [4, 24] of the same molecule?
A: 10

Q: And the “Plant response rating (0 to 100 where 0 is no effect and 100 is complete control), Bermudagrass” value [4, 25]?
A: 100

Q: What about the “Plant response rating, Bermudagrass” value [4, 26] of the same molecule?
A: 90

Q: And the “Plant response rating, Cocklebur” value [5, 23]?
A: 0

Q: And the “Plant response rating, Cocklebur” value [5, 24]?
A: 0

Q: And the “Plant response rating (0 to 100), Cocklebur” value [5, 25]?
A: 10

Q: And the “Plant response rating, Cocklebur” value [5, 26]?
A: 10

Q: And the “Plant response rating, Ragweed, Common” value [6, 23]?
A: 0

Q: What about the “Plant response rating, Ragweed, Common” value [6, 24] of the same molecule?
A: 0

Q: And the “Plant response rating (0 to 100), Ragweed, Common” value [6, 25]?
A: 0

Q: And the “Plant response rating, Ragweed, Common” value [6, 26]?
A: 0

Q: And the “Plant response rating, Corn” value [7, 23]?
A: 25

Q: What about the “Plant response rating, Corn” value [7, 24] of the same molecule?
A: 10

Q: What about the “Plant response rating (0 to 100), Corn” value [7, 25] of the same molecule?
A: 30

Q: What about the “Plant response rating, Corn” value [7, 26] of the same molecule?
A: 30

Q: And the “Plant response rating, Crabgrass” value [8, 23]?
A: 100

Q: What about the “Plant response rating, Crabgrass” value [8, 24] of the same molecule?
A: 20

Q: What about the “Plant response rating (0 to 100), Crabgrass” value [8, 25] of the same molecule?
A: 100

Q: And the “Plant response rating, Crabgrass” value [8, 26]?
A: 100

Q: And the “Plant response rating, Foxtail, Giant” value [9, 23]?
A: 0

Q: What about the “Plant response rating, Foxtail, Giant” value [9, 24] of the same molecule?
A: 0

Q: What about the “Plant response rating (0 to 100), Foxtail, Giant” value [9, 25] of the same molecule?
A: 100

Q: What about the “Plant response rating, Foxtail, Giant” value [9, 26] of the same molecule?
A: 0

Q: And the “Plant response rating, Goosegrass” value [10, 23]?
A: 100

Q: What about the “Plant response rating, Goosegrass” value [10, 24] of the same molecule?
A: 95

Q: And the “Plant response rating (0 to 100), Goosegrass” value [10, 25]?
A: 100

Q: What about the “Plant response rating, Goosegrass” value [10, 26] of the same molecule?
A: 100

Q: And the “Plant response rating, Johnsongrass” value [11, 23]?
A: 70

Q: What about the “Plant response rating, Johnsongrass” value [11, 24] of the same molecule?
A: 50

Q: What about the “Plant response rating (0 to 100), Johnsongrass” value [11, 25] of the same molecule?
A: 100

Q: And the “Plant response rating, Johnsongrass” value [11, 26]?
A: 70

Q: And the “Plant response rating, Kochia” value [12, 23]?
A: 70

Q: And the “Plant response rating, Kochia” value [12, 24]?
A: 20

Q: And the “Plant response rating (0 to 100), Kochia” value [12, 25]?
A: 100

Q: And the “Plant response rating, Kochia” value [12, 26]?
A: 90

Q: And the “Plant response rating, Lambsquarters” value [13, 23]?
A: 100

Q: What about the “Plant response rating, Lambsquarters” value [13, 24] of the same molecule?
A: 80

Q: What about the “Plant response rating (0 to 100), Lambsquarters” value [13, 25] of the same molecule?
A: 100

Q: And the “Plant response rating, Lambsquarters” value [13, 26]?
A: 100

Q: What about the “Plant response rating, Morningglory” value [14, 23] of the same molecule?
A: 0

Q: What about the “Plant response rating, Morningglory” value [14, 24] of the same molecule?
A: 0

Q: And the “Plant response rating (0 to 100), Morningglory” value [14, 25]?
A: 0

Q: What about the “Plant response rating, Morningglory” value [14, 26] of the same molecule?
A: 0

Q: And the “Plant response rating, Pigweed” value [15, 23]?
A: 0

Q: And the “Plant response rating, Pigweed” value [15, 24]?
A: 0

Q: And the “Plant response rating (0 to 100), Pigweed” value [15, 25]?
A: 100

Q: What about the “Plant response rating, Pigweed” value [15, 26] of the same molecule?
A: 50

Q: And the “Plant response rating, Soybean” value [16, 23]?
A: 0

Q: What about the “Plant response rating, Soybean” value [16, 24] of the same molecule?
A: 0

Q: What about the “Plant response rating (0 to 100), Soybean” value [16, 25] of the same molecule?
A: 30

Q: And the “Plant response rating, Soybean” value [16, 26]?
A: 0

Q: What about the “Plant response rating, Velvetleaf” value [17, 23] of the same molecule?
A: 0

Q: What about the “Plant response rating, Velvetleaf” value [17, 24] of the same molecule?
A: 0

Q: And the “Plant response rating (0 to 100), Velvetleaf” value [17, 25]?
A: 10

Q: What about the “Plant response rating, Velvetleaf” value [17, 26] of the same molecule?
A: 0

Q: What about the “Plant response rating, Cupgrass, Woolly” value [18, 23] of the same molecule?
A: 0

Q: What about the “Plant response rating, Cupgrass, Woolly” value [18, 24] of the same molecule?
A: 0

Q: What about the “Plant response rating (0 to 100), Cupgrass, Woolly” value [18, 25] of the same molecule?
A: 70

Q: And the “Plant response rating, Cupgrass, Woolly” value [18, 26]?
A: 40

Q: And the “Plant response rating, Nutsedge” value [19, 23]?
A: 0

Q: What about the “Plant response rating, Nutsedge” value [19, 24] of the same molecule?
A: 0

Q: What about the “Plant response rating (0 to 100), Nutsedge” value [19, 25] of the same molecule?
A: 0

Q: And the “Plant response rating, Nutsedge” value [19, 26]?
A: 0

Q: What about the “Barnyardgrass plant response rating” value ([20]; Rate 250 g/ha) of the same molecule?
A: 100

Q: And the “Barnyardgrass plant response rating” value ([20]; Rate 500 g/ha)?
A: 100

Q: What about the “Plant response rating, Barnyardgrass” value ([20]; Rate 62 g/ha) of the same molecule?
A: 20

Q: And the “Plant response rating, Barnyardgrass” value ([20]; Rate 125 g/ha)?
A: 70

Q: What about the “Rice plant response rating” value ([21]; Rate 250 g/ha) of the same molecule?
A: 20

Q: And the “Rice plant response rating” value ([21]; Rate 500 g/ha)?
A: 40

Q: And the “Plant response rating, Rice” value ([21]; Rate 62 g/ha)?
A: 0

Q: And the “Plant response rating, Rice” value ([21]; Rate 125 g/ha)?
A: 0

Q: What about the “Plant response rating (0 to 100), Sunflower” value [22] of the same molecule?
A: 60
